Reference: patent publication US8759363B2, “Quinazoline-based T cell proliferation inhibitors” (Yissum Research Development Company of the Hebrew …, priority 2010, dated 2014)
Values joined by “and” are separate entries in the source; they are usually repeats but may differ in a detail not shown here. Identical values can stand only once.

What was measured:
[1] = test system: TEA (stimulated) cells; assay: MLR with resting control cells, stimulated TEA cells; assay type: cell-based, mouse; conditions: 0.5 μM, 72 h MLR with IL-7; no inhibitor 3850
Source text: (§1) The aim of this test was to determine whether 2 affects only the proliferating cells or there is a general mechanism affecting all cell numbers. For this purpose we mixed 3 cell types: […]: BALB/c, 2C and OT1; […]: CB6F1, TEA and OT2. The OT1 and OT2 are splenocytes that were isolated from OT1 and OT2 mice (Jackson Laboratories, Bar Harbor, Me.),
(§2) Thus, the ability to monitor the fate of proliferation and resting cells by FACS was enabled due to the use of the MLR described above for CD4+ and CD8+ and the addition of OT2 and OT1 splenocytes, respectively.
(§3) Proliferating cells often secrete cytokines that induce survival of neighbouring cells; since the proliferation was expected to be inhibited we added 50 ng/ml of IL-7. This concentration is sufficient to keep the cells alive, but not to induce proliferation.
The number of TEA and OT2 cells that were treated with 0.5 μM 2 was 1452 and 826, respectively, while the number of 2C and OT1 cells that were treated with 0.5 μM 21 was 3003 and 903, respectively. This is depicted as a bar-graph in FIG. 9C.

[2] = In vitro percutaneous absorption and penetration, porcine ear skin; assay type: in vitro ADME
Method: Fresh porcine ears were obtained from local slaughterhouse. Dorsal side skin was surgically removed from the ears. Hairs were trimmed off with an electric trimmer. Subcutaneous fat was carefully cleaned. […] They were stored at −20° C. until use.
Compound 2 was dispersed into Labrasol® (Gattefosse, France) The mixture was heated to 35° C. and stirred until solubilized. Final concentrations: 0.108% and 0.316%. The final products are clear and somewhat viscous solutions.
The skin samples were mounted on Zyleris' High-Throughput Screening (HTS) station. Each individual cell has a diffusion area of 0.503 cm^2 (8 mm in diameter). The receptor chamber was filled with 2.0 ml of 5% Oleth-20 in 1×PBS buffer, pH 7.4 (10 mM Phosphate, 138 mM NaCl and 2 mM KCl), which was continuously mixed at 200 r.p.m. The screening experiments were carried out at 32±0.1° C. Oleth-20 is a polyethylene glycol ether of Oleyl Alcohol [Poly(oxy-1,2-ethanediyl) 20 mol Ethylene Oxide average molar ratio] (Spectrum Chemical, California).
The samples were dosed at 5 mg for both formulations. Each formulation was run in three replicates. At the end of each time interval (2, 12, and 24 h), the skin surface was wiped with cotton ball. The standard tape-stripping method was used to remove the stratum corneum (SC) layer. Repeated tape-stripping was continued until SC layer was disappeared (15 strips). Compound 2 absorbed in epidermis/dermis layer was collected by solvent extraction with DMSO. After tape-stripping, the remaining skin samples were minced and vortexed with 1.5 ml DMSO. The supernatant was separated. The extraction step was repeated three times. The supernatants were combined and ready for analysis.
The analysis was carried out with a Shimadzu LC-10ADVP instrument with Varian Polaris 3 C18-A, 50×3.0 mm, column. Mobile Phase A: 0.1% formic acid in water. Mobile Phase B: 0.1% formic acid in methanol. Flow rate: 0.4 ml/min.
MS system is an AB Scienx API4000 operated at positive ionization mode. The calibration range is 2.50-25,000 ng/ml.
Quality control of the screening experiments was established by measuring mass balances of a couple of selected runs (spot-check). Measurement of mass balance is to determine total amount of 2 recovered after each experiment. After the selected experiments, total amount of 2 left on the skin surface, absorbed in stratum corneum, in epidermis/dermis layer, and collected in the receptor medium was extracted and determined by LC-MS/MS analysis. The total amount was then compared to the initial dosing amount to determine recovery percentage. Two of the 12 hr runs for the 0.316% formulation was selected for the spot-check. […] They are within acceptable range of 80-120%.

[3] = test system: 2C (stimulated) cells; assay: MLR with resting control cells, stimulated 2C cells; assay type: cell-based, mouse; conditions: 0.5 μM, 72 h MLR with IL-7; no inhibitor 3805
Source text: as §1, §2, §3
Irradiated Balb splenocytes were incubated for 72 h with 2C, and OT1 splenocytes in the presence of IL-7 W/O inhibitor.
The CD4+ and CD8+ were stimulated to proliferate, whereas in the absence of specific stimuli the OT1 and OT2 cell populations were resting, and theses cells were kept alive by the administration of IL-7. […] The number of 2C and OT1 cells that were treated with 0.5 μM 2 was 286 and 1148, respectively, while the number of 2C and OT1 cells that were treated with 0.5 μM 21 (control) was 4767 and 2468, respectively. This is depicted as a bar-graph in FIG. 8C.

[4] = test system: CD8+ (2C) and CD4+ (TEA) T cells; assay: MLR, double-positive CD8+1B2+ (2C) or CD4+/Va2+ (TEA) effector cells by FACS; assay type: cell-based, mouse; conditions: 72 h MLR
Source text: Mice used included male and female 6- to 12-week-old CB6/F1 mice, obtained from the Roscoe B. Jackson Memorial Laboratory (The Jackson Laboratory, Bar Harbor, Me., http://www.jax.org). A breeding pair of transgenic (Tg) H-2b mice expressing the T-cell antigen receptor (TCR) 1B2 from the CD8+ clone 2C with specificity for H-2Ld was kindly provided by Janko Nikolic-Zugic (Memorial Sloan-Kettering Cancer Center, New York, http://www.mskcc.org). A breeding pair of Tg H-2b mice expressing the TCR from the CD4+ clone known as TEA with specificity for I-Ead allopeptide, cross-presented by host APC and bound to I-Ab and was kindly provided by Alexander Y. Rudensky (University of Washington, Seattle). I-Ead allopeptide corresponds to the positions 52 to 68 from the alpha-chain of I-E class II molecules and is expressed in all APCs from H-2b/I-E+ strains (CB6F1-hybrid of C57BL/6 and Balb/c). C57BL/6 mice are H-2b but I-E−, whereas BALB/c are H-2d and I-E+, and therefore their F1 hybrids are H-2b/1-E+ and able to directly present antigen.
Responder 2C splenocytes were harvested, and the cell suspensions were treated with Tris-buffered ammonium chloride to remove RBC. […] On day 3, the MLR cultures were harvested, and analyzed by FACS for CD4 or CD8 levels.
FACS analysis was performed using a modified FACScan (BD Biosciences, Mountain View, Calif.). Fluorescence data were collected during one minute. […]

SMILES: COc1cc(-c2nc(Nc3ccc(C)cc3)c3ccccc3n2)cc(OC)c1OC [Compound 2, N-p-tolyl-2-(3,4,5-trimethoxyphenyl)quinazolin-4-amine]
- number of TEA (stimulated) cells [1]: 1452
- skin concentration relative to the IC50 ([2]; after 24 h, 0.3% 2 in Labrasol): 1000 folds
- final concentration in the skin (epidermis/dermis) ([2]; after 24 h, initial concentration 0.3% 2 in Labrasol, estimated): higher than 114 μM
- penetration of the epidermis/dermis layer ([2]; porcine ears skin, Labrasol formulation): able to penetrate
- recovery percentage (mass balance) ([2]; two 12 hr runs, 0.316% formulation): 89% and 114%
- number of 2C (stimulated) cells [3]: 286
- percentage of double-positive effector cells [4]: reduced in a dose dependent manner
